In patent US20240010642A1, “MODULATORS OF PROGRAMMED DEATH-LIGAND-1” (SOUTHERN RESEARCH INSTITUTE, priority 2021, published 2024):
Square brackets hold non-standard residues; d marks the D form. Peptide text beside a SMILES is read from it. * marks the point of attachment. Api = NC1(C(=O)O)CCNCC1; PhAc = O=C(Cc1ccccc1)*; Ac3c = NC1(C(=O)O)CC1; Aib = CC(C)(N)C(=O)O

system: PDL-1 signaling; assay: Luciferase assay (Table 1); type: cell-based

EC50	SMILES
0.39 µM	CC(C)(NC(=O)c1cc(CN)cc(NC(=O)Cc2ccccc2)c1)C(N)=O [Compound No. 1, 2-[[3-(Aminomethyl)-5-(2-phenylacetamido)phenyl]formamido]-2-methylpropanamide]
0.93 µM	CC(C)(NC(=O)c1cc(CN)cc(NC(=O)Cc2ccc(F)cc2)c1)C(N)=O [Compound No. 2]
4.22 µM	CC(C)(NC(=O)C1(NC(=O)Cc2ccccc2)CCNCC1)C(N)=O [Compound No. 22, 2-methyl-2-[[4-(2-phenylacetamido)piperidin-4-yl]formamido]propanamide] (PhAc-[Api]-[Aib]-NH2)
12.6 µM	NCc1cc(NC(=O)Cc2ccccc2)cc(C(=O)NC2(C(N)=O)CC2)c1 [compound 3]
15.7 µM	NCc1cc(NC(=O)Cc2ccc(F)cc2)cc(C(=O)NC2(C(N)=O)CC2)c1 [compound 4]
27.1 µM	NCc1cc(NC(=O)Cc2ccccc2)cc(C(=O)NC2(C(N)=O)CCC2)c1 [compound 6]
26.1 µM	NCc1cc(NC(=O)Cc2ccccc2)cc(C(=O)NC2(C(N)=O)CCCC2)c1 [compound 7]
0.07 µM	NCc1cc(NC(=O)Cc2ccc(F)cc2)cc(C(=O)NCC(N)=O)c1 [compound 9]
7.06 µM	NCc1cc(NC(=O)Cc2ccc(F)cc2)cc(C(=O)NC2(C(N)=O)CCC2)c1 [compound 10]
20 µM	CC(C)(NC(=O)c1cc(NC(=O)Cc2ccccc2)ccc1CN)C(N)=O [compound 11]
14.3 µM	CC(C)(NC(=O)c1cc(NC(=O)Cc2ccc(F)cc2)ccc1CN)C(N)=O [compound 12]
20.4 µM	CC(C)(NC(=O)c1ccc(CN)c(NC(=O)Cc2ccc(F)cc2)c1)C(N)=O [compound 13]
1.19 µM	CC(C)(NC(=O)c1ccc(CN)c(NC(=O)Cc2ccccc2)c1)C(N)=O [compound 14]
19.3 µM	CC(C)(NC(=O)c1cc(NC(=O)Cc2ccccc2)cc(CN)c1F)C(N)=O [compound 15]
20.6 µM	CC(C)(NC(=O)c1cc(NC(=O)Cc2ccc(F)cc2)cc(CN)c1F)C(N)=O [compound 16]
0.21 µM	CN(C)Cc1cc(NC(=O)Cc2ccc(F)cc2)cc(C(=O)NC(C)(C)C(N)=O)c1 [compound 17]
21 µM	CNC(=O)C(C)(C)NC(=O)c1cc(CN(C)C)cc(NC(=O)Cc2ccc(F)cc2)c1 [compound 18]
20.7 µM	CNC(=O)C(C)(C)NC(=O)c1cc(CN)cc(NC(=O)Cc2ccc(F)cc2)c1 [compound 19]
9.02 µM	CC(C)(NC(=O)C1(NC(=O)Cc2ccc(F)cc2)CCNCC1)C(N)=O [compound 23]
7.73 µM	NC(=O)C1(NC(=O)C2(NC(=O)Cc3ccccc3)CCNCC2)CC1 [compound 24] (PhAc-[Api]-[Ac3c]-NH2)
0.36 µM	NC(=O)C1(NC(=O)C2(NC(=O)Cc3ccc(F)cc3)CCNCC2)CC1 [compound 25]

molecular target: PDL-1 (Homo sapiens (Human), UniProt Q9NZQ7); assay: KD binding (Table 1)
Sequence (Q9NZQ7 19-290): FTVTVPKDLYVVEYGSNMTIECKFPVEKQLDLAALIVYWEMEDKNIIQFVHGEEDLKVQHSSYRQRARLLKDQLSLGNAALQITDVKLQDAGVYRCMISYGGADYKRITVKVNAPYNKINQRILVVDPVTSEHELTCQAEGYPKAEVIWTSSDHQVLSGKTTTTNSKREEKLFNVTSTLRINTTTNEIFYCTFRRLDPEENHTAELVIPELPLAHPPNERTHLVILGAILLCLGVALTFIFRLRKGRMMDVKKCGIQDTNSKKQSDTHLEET

KD	SMILES
No Binding	CC(C)(NC(=O)c1cc(CN)cc(NC(=O)Cc2ccccc2)c1)C(N)=O [Compound No. 1, 2-[[3-(Aminomethyl)-5-(2-phenylacetamido)phenyl]formamido]-2-methylpropanamide]
No Binding	NCc1cc(NC(=O)Cc2ccccc2)cc(C(=O)NC2(C(N)=O)CCCC2)c1 [compound 7]
No Binding	CC(C)(NC(=O)c1cc(NC(=O)Cc2ccc(F)cc2)cc(CN)c1F)C(N)=O [compound 16]
No Binding	CNC(=O)C(C)(C)NC(=O)c1cc(CN(C)C)cc(NC(=O)Cc2ccc(F)cc2)c1 [compound 18]
